{"source": "patent US20060134131A1", "about": "“Cosmetic or pharmaceutical composition comprising a genus halopteris brown alga extract” (priority 2002, published 2006)", "test_system": "pre-adipocytes 3T3-L1", "assay": "Differentiation of 3T3-L1 pre-adipocytes into adipocytes, lipid content by Oil Red colouring", "format": "cell-based", "conditions": "Mus musculus, 3T3-L1, retinoic acid 10 μM", "method": "The study on the effect of this extract on a line of pre-adipocytes ET3-L1 induced as adipocytes is carried out according to a protocol which is known and which is in particular described in the document which appeared in Annu. Rev. Biochem., 1995, 64: 345-373, entitled “Transcriptional regulation of gene expression during adipocyte differentiation”, the authors of which were MacDougald O A and Lane M D.\nThis protocol is set out briefly below. The pre-adipocyte cells of the line e=3T3-L1 were kept in culture in a Dulbelcco modified Eagle medium (DMEM) containing 2 mM of glutamine, 4.5 g/l of glucose, 0.11 g/l of sodium pyruvate, 10% of calf serum (SVD) and antibiotics (50 U penicillin and 50 μg of streptomycin per ml of medium). Their differentiation as adipocytes was brought about in the following manner: firstly, the pre-adipocyte cells were cultivated with confluence for two days. At the time which will be referred to below as D0, the culture medium was replaced by a differentiation inducing medium (DIM) composed of DMEM containing 10% foetal calf serum (FCS) with the addition of 0.25 mM of isobutyl methyl xanthine (IBMX), 0.25 μM of dexamethasone and 1.74 μM of insulin. After two days of incubation, and therefore at time D2, the induction medium was delicately withdrawn and replaced by a new culture medium containing 10% of FCS and 0.174 μM of insulin. Next the culture medium was renewed every two days.\nAfter seven days of culture, the lipid content of the pre-adipocyte cells was assessed by colouring with Oil Red. More precisely, the pre-adipocyte cells were fixed to 3.7% formaldehyde and then incubated for ten minutes with a Oil Red colorant solution (0.5% in an isopropanol/water mixture). After 10 minutes, the cellular carpet was rinsed with water and the pre-adipocyte cells were lysed with pure isopropanol. The optical density (OD) of the medium was measured at 540 nm.\nThe extract of the brown alga Halopteris scoparia was tested on 3T3-L1 cells during the induction phase by means of the DIM, which therefore commenced at day D0.\nIn the first experimental series, this extract was added from the very start of the differentiation (at time D0) and kept present in the medium until the cells were fixed (at time D7), by renewal every two days (that is to say at time D2 and D4). The extract was tested at the following three concentrations: 0.4%, 1% and 2.5%. In the same way, use was made of a sample of 10 μM retinoic acid, which is known for inhibiting the differentiation of pre-adipocytes into adipocytes, as is in particular described in the article which appeared in Differentiation, 1990, 45:119-127, entitled “The molecular basis for inhibition of adipose conversion of 3T3-L1 cells by retinoic acid”, the authors of which were Stone R L and Berlnohr D A. […]", "note": "Read-outs that look alike come from different tables or passages of the source.", "data": [{"smiles": "CC1=C(/C=C/C(C)=C/C=C/C(C)=C/C(=O)O)C(C)(C)CCC1", "note": "[Retinoic Acid, retinoic acid]", "values": [{"measurement": "inhibition at 10 µM", "setting": "first experimental series, five manipulations, read-out: % inhibition of the differentiation", "value": "82 ± 21", "unit": "%"}, {"measurement": "inhibition at 10 µM", "setting": "presence from D0 to D2, read-out: % inhibition of differentiation", "value": "40 ± 5", "unit": "%"}, {"measurement": "inhibition at 10 µM", "setting": "presence from D0 to D7, second series, read-out: % inhibition of differentiation", "value": "51 ± 3", "unit": "%"}, {"measurement": "inhibition at 10 µM", "setting": "presence from D2 to D7, read-out: % inhibition of differentiation", "value": "3 ± 2", "unit": "%"}]}]}
